Test results: PMC12915131, “Balanced Expression of the Diiron Oxygenase BioE Is Essential for Biotin Homeostasis in Elizabethkingia meningoseptica” (Advanced Science, 2025)

Experiments:
EmBioE (BioE) = biological target: T1, EmBioE (BioE); assay: SPR (Biacore, CM5 chip); supported by urea-PAGE inhibition of C18-ACP cleavage (Ki […]); format: binding, Elizabethkingia meningoseptica
T1 construct: 6x His-tagged EmBioE

EmBioE = biological target: T2, EmBioE; assay: SPR, confirmed by MST; HPLC shows conversion to pimeloyl-CoA; format: binding, Elizabethkingia meningoseptica
T2 construct: gene bioE; 6x His-tagged EmBioE

Compound: C=CCn1c(SCC(=O)Nc2scc(-c3ccc(C)cc3)c2C(=O)OC)nnc1-c1ccc(N(C)C)cc1 [compound 466982, 466982]
- Kd (EmBioE (BioE)): ~14.6 µM

Compound: CCCCCCCCCCCCCCCCCC(=O)SCCNC(=O)CCNC(=O)[C@H](O)C(C)(C)COP(=O)(O)OP(=O)(O)OC[C@H]1O[C@@H](n2cnc3c(N)ncnc32)[C@H](O)[C@@H]1OP(=O)(O)O [C18-CoA, stearoyl-CoA]
- Kd (EmBioE): ~20.1 µM
